“Also recorded” adds a separate entry of the source. Like-named read-outs stand apart in the source and are kept apart here.
Experiments:
PTP1B [1] = target: T1, PTP1B (Homo sapiens, UniProt P18031); assay: PTP1B-catalyzed hydrolysis of p-nitrophenyl phosphate (pNPP), in vitro kinetic assay; type: biochemical; settings: for inhibition of PTP1B activity on pNPP relative to himachalol: 50 nM PTP1B, 5 mM pNPP, 2% or 10% DMSO; for Ki: PTP1B1-321
T1 sequence (P18031 1-321): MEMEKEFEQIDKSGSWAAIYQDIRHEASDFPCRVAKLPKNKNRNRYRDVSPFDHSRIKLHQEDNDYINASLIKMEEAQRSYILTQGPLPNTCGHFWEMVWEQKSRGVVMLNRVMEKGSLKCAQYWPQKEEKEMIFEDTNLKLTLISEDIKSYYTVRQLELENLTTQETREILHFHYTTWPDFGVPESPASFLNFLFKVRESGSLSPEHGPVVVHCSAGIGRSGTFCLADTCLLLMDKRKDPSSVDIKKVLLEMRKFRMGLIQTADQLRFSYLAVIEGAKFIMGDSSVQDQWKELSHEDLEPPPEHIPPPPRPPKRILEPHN
Procedure: PTP1B was purified as described previously. Briefly, the E. coli BL21 (DE3) cells were transformed with a pET21b vector containing the catalytic domain of PTP1B (residues 1-321) modified with a 6× polyhistidine tag on its C-terminus. The cells were grown in 1-L cultures to an OD600 of 0.3-0.6 (37° C., 225 RPM), induced with 500 μM IPTG, and grown at 22° C. for 20 hours. The cells were lysed with B-PERII, and purified PTP1B by using desalting, nickel affinity, and anion exchange chromatography (HiPrep 26/10, HisTrap HP, and HiPrep Q HP, respectively; GE Healthcare). The final protein was stored (50 μM) in HEPES buffer (50 mM, pH 7.5, 0.5 mM TCEP) in 20% glycerol at −80° C.
(§1) Inhibition was examined by FPP by measuring its influence on PTP1B-catalyzed hydrolysis of p-nitrophenylphosphate (pNPP). Briefly, 100-μL reactions were prepared comprising 50 nM PTP1B, 0.167-20 mM pNPP, and 75-150 μM terpenoids in 50 mM HEPES (pH=7.3) with 50 mM TCEP, 50 μg/mL BSA, and 2-10% DMSO. The reactions were initiated by adding pNPP, and the production of p-nitrophenol (pNP) was monitored by measuring absorbance at 405 nm every 10 s for 5 min (SpectraMax iD3 plate reader). When necessary, the solubility of the terpenoids in individual wells were assessed by plotting the A405 values for each well—including a no-inhibitor well—in a single read.
Kinetic data was analyzed by using a custom Matlab script supplemented with a user-generated standard curve (e.g., a plot of absorbance at 405 nm vs. pNP concentration in μM, FIG. 15). This script removes datapoints outside of (i) the linear range of the standard curve and/or (ii) the initial rate regime, and it excludes datasets that contain fewer than 10 datapoints after these processing steps. The all datasets were fit using linear regression with Matlab's backslash operator. To determine the half maximal inhibitory concentration (IC50) of himachalol, kinetic models were evaluated by fitting them to standard models of inhibition (e.g., […], noncompetitive, […], and mixed inhibition). Briefly, the procedure included: (i) fitting an initial-rate measurements of pNPP hydrolysis with and without inhibitors, (ii) using the Akaike's Information Criterion (AIC) to compare the best-fit single parameter model to each alternative single-parameter model and accepting the “best-fit” model when the difference in AIC (Δi) exceeded 5 for all comparisons (when this criterion was not met, it was deemed that two or more single-parameter models may be indistinguishable), and (iii) using an F-test to compare a mixed inhibition model to the best-fit single-parameter model and accepting the mixed model if p<0.05. […] The MATLAB function “nlparci” was used to determine the confidence intervals of kinetic parameters, and those intervals were propagated to estimate confidence intervals for each IC50.
Inhibition by FPP, a costly reagent, was examined with three modifications of the above assay: (i) pNPP concentration was held constant (5 mM). (ii) The 10% DMSO was replaced with 10% of a mixture of methanol: 10 mM NH4OH (7:3). (FPP was purchased as a 1.1 mg/mL solution in methanol: 10 mM NH4OH (7:3)). (ii) IC50 was estimated by using a linear fit to the initial rate data; 95% confidence intervals were propagated on the regression parameters generated using Matlab's “coefCI function”. This approach, which reflects the limited number of measurements afforded by the FPP stock (measurements which include very high and very low initial rates), may result in a greater error than a more standard approach for estimating IC50 (e.g., 4-parameter logistic curves) but nonetheless provides an order of magnitude estimate of potency.

[2] = solubility of terpenoids in kinetic assay wells (A405); type: physicochemical
Procedure: as §1

[3] = target: kinase substrate domain (MidT) fused to the omega subunit of RNA polymerase (RpoZ), no protease recognition site in the linker (UniProt P0A800)
PTP1B [4] = target: T1, PTP1B; assay: melting temperatures determined with differential scanning fluorimetry; type: binding; settings: n=3
Description: (§2) Error bars denote standard error for n=3 technical replicates. […] Error bars denote standard deviation for n=3 technical replicates.

PTP1B [5] = target: T1, PTP1B; assay: fluorescence-based binding isotherms for BBR; set-up: binding of BBR to PTP1B in the presence of amorphadiene: dose or concentration left out as unconfirmed; settings: for ΔFmax of BBR binding isotherm: ±SE
Description: as §2

[6] = target: RpoZ-MidT fusion with the DENVpro/WNVpro recognition site in the linker (UniProt P0A800)
3CLpro = 3CLpro (Severe acute respiratory syndrome coronavirus 2, UniProt P0DTD1); assay: 3CLpro-mediated hydrolysis of FRET peptide Mca-[…](Dnp)K; type: biochemical, SARS-COV-2
Description: Förster resonance energy transfer (FRET) peptides provide a facile means of assaying protease inhibitors. These peptides contain a fluorophore and a quencher separated by a protease recognition domain; peptide cleavage separates the fluorophore and quencher and increases fluorescence.
For 3CLpro, a commercially available substrate was used: Mca-[…](Dnp)K (SEQ ID NO: 1), where Mca ((methoxycoumarin-4-yl) acetyl) was the fluorophore and 2,4-dinitrophenyl (Dnp) was the quencher. Using this assay, inhibition by eucalyptol and α-bisabolol (FIGS. 30B-30C, FIG. 56) was examined.

[7] = target: RpoZ-MidT fusion with the HIV-1 protease recognition sequence in the linker (number of flanking alanines not stated) (UniProt P0A800)
[8] = target: RpoZ-MidT fusion with AAAA_Ubiquitin_AAAA added to the linker (UniProt P0A800)
[9] = target: RpoZ-MidT fusion with the 3CLpro recognition sequence in the linker (number of flanking alanines not stated) (UniProt P0A800)
[10] = target: RpoZ-MidT fusion with the PLpro recognition site LRGG in the linker (UniProt P0A800)
SARS-COV-2 3CLpro = SARS-COV-2 3CLpro (Severe acute respiratory syndrome coronavirus 2, UniProt P0DTD1); assay: 3CLpro-catalyzed proteolysis of fluorogenic peptide substrate TSAVLQ_AFC; type: biochemical; settings: mean and standard error
[11] = target: RpoZ-MidT fusion with the 3CLpro recognition sequence in the linker (number of flanking alanines not stated), P0A800
[12] = target: RpoZ-MidT fusion with the HIV-1 protease recognition sequence in the linker (number of flanking alanines not stated), P0A800
Sequence of RpoZ-MidT fusion with the HIV-1 protease recognition sequence in the linker (number of flanking alanines not stated), P0A800 (P0A800 whole entry, looked up, the tested form may be a part): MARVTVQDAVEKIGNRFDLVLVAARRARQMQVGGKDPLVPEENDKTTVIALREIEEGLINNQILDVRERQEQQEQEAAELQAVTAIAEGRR

Sequence of RpoZ-MidT fusion with the 3CLpro recognition sequence in the linker (number of flanking alanines not stated), P0A800 (P0A800 whole entry, looked up, the tested form may be a part): as above
Sequence of RpoZ-MidT fusion with the DENVpro/WNVpro recognition site in the linker (P0A800 whole entry, looked up, the tested form may be a part): as above
Sequence of RpoZ-MidT fusion with the 3CLpro recognition sequence in the linker (number of flanking alanines not stated) (P0A800 whole entry, looked up, the tested form may be a part): as above
Sequence of RpoZ-MidT fusion with the PLpro recognition site LRGG in the linker (P0A800 whole entry, looked up, the tested form may be a part): as above
Sequence of RpoZ-MidT fusion with the HIV-1 protease recognition sequence in the linker (number of flanking alanines not stated) (P0A800 whole entry, looked up, the tested form may be a part): as above
Sequence of RpoZ-MidT fusion with AAAA_Ubiquitin_AAAA added to the linker (P0A800 whole entry, looked up, the tested form may be a part): as above
Sequence of kinase substrate domain (MidT) fused to the omega subunit of RNA polymerase (RpoZ), no protease recognition site in the linker (P0A800 whole entry, looked up, the tested form may be a part): as above

CC1=C[C@H]2C(=C(C)CCCC2(C)C)CC1 [β-himachalene]
inhibition of PTP1B activity on pNPP relative to himachalol (PTP1B [1]): less inhibitory | solubility in kinetic assay [2]: low solubilities

3-chymotrypsin-like protease (3CLpro) of SARS-CoV-2
dynamic range (DR, the change in luminescence caused by protease expression) [3]: 10.7±1.2 vs. 6.3±0.9

CCc1oc2cc(S(=O)(=O)Nc3ccc(S(=O)(=O)Nc4nccs4)cc3)ccc2c1C(=O)c1cc(Br)c(O)c(Br)c1 [BBR, 3-(3,5-dibromo-4-hydroxybenzoyl)-2-ethyl-N-[4-[(2-thiazolylamino)sulfonyl]phenyl]-6-benzofuransulfonamide]
effect on melting temperature (stability) of PTP1B (PTP1B [4]): destabilize PTP1B | ΔFmax of BBR binding isotherm (PTP1B [5]; BBR alone): 227000±13000 | ΔFmax of BBR binding isotherm (PTP1B [5]; BBR with AD): 195000±12000 | ΔFmax of BBR binding isotherm (PTP1B [5]; BBR with TCS401): 94000±2000 | binding of BBR to PTP1B in the presence of amorphadiene (PTP1B [5]; presence of amorphadiene): not significantly disrupted

CC(C)=CCC/C(C)=C/CC/C(C)=C/CO[P@@](=O)(O)OP(=O)(O)O (stereo in doubt) [FPP, farnesyl pyrophosphate]
IC50 (PTP1B [1]; [PTP1B]=50 nM, [pNPP]=5 mM, linear fit, rough estimate, read-out: IC50 for PTP1B): ~200 µM

Cc1cc(-c2c3ccccc3c(Br)c3sc(C)c(C)c23)cc(C)c1O[C@H](Cc1ccccc1)C(=O)O [Ertiprotafib]
effect on melting temperature (stability) of PTP1B (PTP1B [4]): destabilize PTP1B

CC1=C[C@H]2[C@@H](CC1)[C@](C)(O)CCCC2(C)C [himachalol]
Ki (PTP1B [1]; fit of competitive model, read-out: Ki, competitive model): 24.4 µM | Ki (PTP1B [1]; fit of mixed model, read-out: Ki,c, mixed model): 161 µM | Ki (PTP1B [1]; fit of mixed model, read-out: Ki,u, mixed model): 305 µM | Ki (PTP1B [1]; fit of noncompetitive model, marked *, read-out: Ki, noncompetitive model (best fit)): 280 µM | Ki (PTP1B [1]; fit of uncompetitive model, read-out: Ki, uncompetitive model): 253 µM | IC50 (PTP1B [1]; PTP1B-catalyzed hydrolysis of pNPP, estimated from best-fit kinetic model at 20 mM pNPP, read-out: IC50 for PTP1B): 280 ± 59 µM

Non-structural protein 2B-3 protease complex from Dengue virus 2 (DENV2 NS2B-NS3)
LuxAB luminescence screen of proteases against recognition sites [6]: WNVpro and DNVpro showed no activity in initial screens

C=C1C=CC(C)(C)CCCC(C)=CCC1 [γ-humulene]
inhibition of PTP1B activity on pNPP relative to himachalol (PTP1B [1]): less inhibitory | solubility in kinetic assay ([2]; precluded IC50 estimates): low solubilities

CC12CCC(CC1)C(C)(C)O2 [eucalyptol]
inhibitory effect on 3CLpro (3CLpro; FRET peptide, FIG. 56): no inhibitory effect; also recorded: not an inhibitor

HIV-1 protease
LuxAB luminescence response to protease overexpression [7]: HIVpro appeared functional with all sites, which was behavior consistent with its reported promiscuity | LuxAB luminescence response to protease overexpression [8]: HIVpro appeared functional with all sites, which was behavior consistent with its reported promiscuity | LuxAB luminescence response to protease overexpression [9]: HIVpro appeared functional with all sites, which was behavior consistent with its reported promiscuity | LuxAB luminescence response to protease overexpression [10]: HIVpro appeared functional with all sites, which was behavior consistent with its reported promiscuity

CC(C)=CCC=C(C)C1CC=C(C)CC1 (stereo not drawn) [α-bisabolene]
IC50 (SARS-COV-2 3CLpro): 186 ± 12 µM

C=C(C)[C@@H]1CC[C@@H](C)[C@@H]2CCC(C)=C[C@@H]21 [amorphadiene]
effect on melting temperature (stability) of PTP1B (PTP1B [4]): do not | selectivity PTP1B versus TCPTP (PTP1B [1]): more potent inhibitor of PTP1B than TCPTP

Non-structural protein 2B-3 protease complex from West Nile Virus (WNV NS2B-NS3)
LuxAB luminescence screen of proteases against recognition sites [6]: WNVpro and DNVpro showed no activity in initial screens

α-bisabolol
IC50 (SARS-COV-2 3CLpro): 30 to 80 µM | IC50 (3CLpro; FRET / fluorogenic peptide, mixture containing α-bisabolol, read-out: IC50 for 3CLpro): 3.33 µM | IC50 (3CLpro; fit to percent inhibition, FIG. 30C, read-out: half-maximal inhibitory concentration (IC50) for 3CLpro): ~3 µM

O=C(O)C(=O)Nc1sc2c(c1C(=O)O)CCNC2 [TCS401]
effect on melting temperature (stability) of PTP1B (PTP1B [4]): do not

CC1=C[C@@H]2C(=C(C)CC[C@H]2C(C)C)CC1 [(+)-8-cadinene]
IC50 (PTP1B [1]; major product of terpene synthase A0A0C9VSL7, error 95 CI, read-out: IC50 (PTP1B), estimated): 165 µM

B1: protein tyrosine phosphatase 1B (PTP1B), catalytic domain 1-321 (protein)
chain: T1 sequence (P18031 1-321)
dynamic range of LuxAB luminescence between active and inactive PTP1B [11]: retained the desired B2H activity (e.g., PTP1B inactivation increased luminescence) at a 4- to 5-fold dynamic range | dynamic range of LuxAB luminescence between active and inactive PTP1B [12]: retained the desired B2H activity (e.g., PTP1B inactivation increased luminescence) at a 4- to 5-fold dynamic range
